# In patent US20150352108A1, “AMINO-PYRIMIDINE COMPOUNDS AS INHIBITORS OF TBK1 AND/OR IKK EPSILON” (Alzheimer's Institute of America, priority 2009, published 2015):
# Tests used:
# [1] = test system: TBK1-mediated phosphorylation of IRF7; experiment: In-situ TBK1-mediated phosphorylation of IRF7 in HEK293T cells transfected with IRF7 and TBK1 (Western blot); assay type: cell-based
# Method: HEK293T cells were cotransfected in a 10-cm dish with IRF3 and IKKε expression plasmids using Lipofectamine 2000 (Invitrogen, Carlsbad, Calif.). The following day, cells were replated at 20,000 per well in 96-well plates and treated with test compounds (compounds according to Formula I) for 20 hours. Cell lysates were prepared and analyzed using an ELISA for phospho-Ser396 (anti-IRF3 capture antibody, Santa Cruz Biotechnology, Inc., Santa Cruz, Calif.; anti-p-Ser396 IRF3 detection antibody, Cell Signaling, Danvers, Mass.). pIRF3 levels in compound treated cells were normalized to DMSO treated cells (no compound). Cell viability was assayed in a parallel set of plates to monitor cytotoxic effects of the test compounds (CellTiter-Glo, Promega, Inc., Madison, Wis.). TBK1 activity was tested by Western blotting using a phospho-specific IRF7 antibody. Similar to above, HEK293T cells were transfected with IRF7 and TBK1 expression plasmids. Cells were seeded in 12-well plates at 150,000 per well and treated overnight with test compounds. Protein lysates were prepared and processed for Western blotting followed by detection using a phosphor-Ser477/Ser479 IRF7 antibody (BD Biosciences, San Jose, Calif.)
# [2] = test system: insulin-stimulated glucose uptake, 3T3-L1 adipocytes; experiment: Glucose uptake assay using differentiated 3T3-L1 adipocytes; assay type: cell-based, Murine; conditions: palmitic acid 48 hours
# Method: To determine if IKK/TBK1 inhibitors prevent fatty acid induced insulin resistance in 3T3-L1 adipocytes, insulin-stimulated glucose uptake in the presence of compounds according to Formula I was monitored.
# Murine 3T3-L1 cells were differentiated to adipocytes in 96-well plates by incubating for 2 days in adipogenic cocktail (10 ug/ml insulin, 115 ug/ml isobutylmethylxanthine, 1 uM dexamethasone) followed by incubation in insulin-supplemented medium for 2 days and complete media for an additional 5-10 days. Adipocytes were treated with BSA-complexed palmitic acid and a compound according to Formula I for 48 hours. Following free fatty acid treatment, adipoctyes were insulin-deprived in serum-free media for 2 hours. Subsequently, the media was replaced with KRH buffer containing a compound according to Formula I and 300 nM insulin for 15-20 minutes. [^14C]-labeled 2-deoxyglucose was then added for 15 minutes. Cells were thoroughly washed with ice-cold PBS, and intracellular [^14C]-2-deoxyglucose was measured in cell lysates by scintillation.
# [3] = test system: IFN-β1 mRNA, normal PBMCs; experiment: Agonist induced IFN-β1 mRNA in PBMCs from healthy donors (qRT-PCR); assay type: cell-based, human; conditions: LMW poly(I:C), serial dilutions
# Description: To determine if inhibition of IKKε and/or TBK1 modulates nucleic acid agonist induced gene expression, high molecular weight poly(I:C) (MDA5 agonist) and low weight poly(I:C) (RIG-I agonist) were electroporated into human peripheral blood mononuclear cells (PBMCs) obtained from normal donors, or low molecular weight Poly(I:C) was electroporated into PBMCs from donors that have Systemic Lupus Erythematosus (SLE). Induction of IFN-α2, IFN-β, and BLyS mRNA production was monitored by qRT-PCR.
# Human PBMCs were collected from healthy donors using routine laboratory procedures. PBMCs from SLE patients were purchased from Astarte Biologics (Redmond, Wash.). The PBMCs were electroporated using Nucleofector® Kit V (Lonza, Walkersville, Md.) with 0.4 ug/mL of high molecular weight poly (I:C) (InvivoGen, San Diego, Calif.) or 0.4 ug/mL low molecular weight poly (I:C) (InvivoGen, San Diego, Calif.) and seeded into wells containing serial dilutions of Example Compound 5 (0.1% final DMSO concentration). […] RNA was quantitated using Quant-iT™ RiboGreen® RNA Assay Kit (Invitrogen, Carlsbad, Calif.). Reverse transcription and real-time PCR were performed using the QuantiTect Probe RT-PCR Kit (Qiagen, Germantown, Md.) and the 7300 Real-Time PCR System (Applied Biosytems, Foster City, Calif.). […]
smiles,measurement,setting,value
"N#Cc1cc(-c2ccnc(Nc3ccc(N4CCOCC4)cc3)n2)ccc1OC1CCOCC1 [Example 5, 5-(2-{[4-(Morpholin-4-yl)phenyl]amino}pyrimidin-4-yl)-2-(tetrahydro-2H-pyran-4-yloxy)benzaonitrile]",inhibition of TBK1-mediated phosphorylation of IRF7,[1],inhibit
same,effect on free fatty acid inhibition of insulin-stimulated glucose uptake,[2],reverse the inhibitory effects of free fatty acid on insulin-stimulated glucose uptake
same,induction of IFN-β1 mRNA,[3],potently inhibited
